Experiments:
[1] = system: triacylglycerol hydrolase (TGH); assay: Proteome-wide serine hydrolase selectivity screening, TGH; type: biochemical, human; settings: value in parentheses; FAAH versus TGH
[2] = biological target: T1, triacylglycerol hydrolase (TGH) (UniProt Q8VCT4); assay: as above; type: biochemical, human; settings: selectivity screening
T1 sequence (Q8VCT4 1-565): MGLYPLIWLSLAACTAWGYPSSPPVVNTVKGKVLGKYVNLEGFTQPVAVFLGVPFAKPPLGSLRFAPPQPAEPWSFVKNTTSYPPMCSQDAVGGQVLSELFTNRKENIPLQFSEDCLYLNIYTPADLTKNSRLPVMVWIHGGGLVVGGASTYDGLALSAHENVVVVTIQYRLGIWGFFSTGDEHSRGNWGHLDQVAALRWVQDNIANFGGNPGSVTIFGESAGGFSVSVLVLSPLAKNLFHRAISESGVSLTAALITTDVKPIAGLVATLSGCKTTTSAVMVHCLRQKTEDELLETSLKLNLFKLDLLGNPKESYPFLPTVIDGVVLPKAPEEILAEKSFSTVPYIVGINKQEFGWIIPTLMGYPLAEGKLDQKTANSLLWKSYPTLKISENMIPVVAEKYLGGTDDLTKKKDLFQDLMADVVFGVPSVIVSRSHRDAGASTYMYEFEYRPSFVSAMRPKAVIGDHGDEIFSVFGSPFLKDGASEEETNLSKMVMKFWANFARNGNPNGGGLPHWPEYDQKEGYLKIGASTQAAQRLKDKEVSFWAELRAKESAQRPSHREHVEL

[3] = biological target: T2, truncated rat FAAH (rFAAH) (Rattus norvegicus, UniProt P97612); assay: Rat FAAH inhibition enzyme assay (14C-oleamide hydrolysis, Dixon plot); type: biochemical; settings: Table 2; read-out: FAAH Ki
T2 construct: The truncated rat FAAH (rFAAH) was expressed in E. coli and purified as described by Patricelli et al; made in house; host or cells: E. coli
T2 sequence (P97612 30-579 limits assumed): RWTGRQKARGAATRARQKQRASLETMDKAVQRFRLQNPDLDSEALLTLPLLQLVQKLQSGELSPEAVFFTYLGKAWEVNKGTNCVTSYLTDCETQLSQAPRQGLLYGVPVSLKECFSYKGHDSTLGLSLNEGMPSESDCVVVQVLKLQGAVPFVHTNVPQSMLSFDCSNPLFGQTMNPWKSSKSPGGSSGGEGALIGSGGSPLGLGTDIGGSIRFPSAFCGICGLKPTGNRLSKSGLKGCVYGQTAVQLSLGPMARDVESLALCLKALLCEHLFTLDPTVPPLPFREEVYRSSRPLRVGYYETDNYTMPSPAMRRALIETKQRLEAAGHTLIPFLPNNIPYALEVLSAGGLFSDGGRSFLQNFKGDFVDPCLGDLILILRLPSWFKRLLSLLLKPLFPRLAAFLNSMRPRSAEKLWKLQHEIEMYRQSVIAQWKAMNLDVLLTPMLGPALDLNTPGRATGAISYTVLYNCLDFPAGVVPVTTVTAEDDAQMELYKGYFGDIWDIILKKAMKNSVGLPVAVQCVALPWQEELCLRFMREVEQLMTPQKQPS
Experimental: The purified recombinant rFAAH was used in the inhibition assays unless otherwise indicated.
The ^14C-labeled oleamide (substrate) and oleic acid (product) were extracted with EtOAc and analyzed by TLC. The Ki of the inhibitor was calculated using a Dixon plot (standard deviations are provided in the Supporting Information tables).

FAAH = biological target: T3, FAAH (UniProt O08914); assay: Proteome-wide serine hydrolase selectivity screening, FAAH; type: biochemical, human
T3 sequence (O08914 1-579): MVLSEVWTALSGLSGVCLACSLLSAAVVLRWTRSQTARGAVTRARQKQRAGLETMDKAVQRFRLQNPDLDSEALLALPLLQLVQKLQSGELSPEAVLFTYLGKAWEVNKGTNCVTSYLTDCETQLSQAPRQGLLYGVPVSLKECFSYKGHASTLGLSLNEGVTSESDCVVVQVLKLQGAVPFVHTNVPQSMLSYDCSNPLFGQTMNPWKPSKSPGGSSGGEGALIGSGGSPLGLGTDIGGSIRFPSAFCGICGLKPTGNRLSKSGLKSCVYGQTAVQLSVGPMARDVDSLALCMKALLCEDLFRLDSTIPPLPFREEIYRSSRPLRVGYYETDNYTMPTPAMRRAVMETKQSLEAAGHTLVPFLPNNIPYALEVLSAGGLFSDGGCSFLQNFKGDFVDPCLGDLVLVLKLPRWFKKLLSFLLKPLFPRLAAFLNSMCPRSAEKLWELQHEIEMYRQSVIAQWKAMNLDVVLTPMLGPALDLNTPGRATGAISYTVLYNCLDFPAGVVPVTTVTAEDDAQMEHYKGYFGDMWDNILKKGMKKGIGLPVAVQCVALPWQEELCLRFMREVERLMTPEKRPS

[4] = biological target: T4, membrane-associated hydrolase (KIAA1363) (UniProt Q8BLF1); assay: Proteome-wide serine hydrolase selectivity screening, KIAA1363; type: biochemical; settings: selectivity screening
T4 sequence (Q8BLF1 1-408): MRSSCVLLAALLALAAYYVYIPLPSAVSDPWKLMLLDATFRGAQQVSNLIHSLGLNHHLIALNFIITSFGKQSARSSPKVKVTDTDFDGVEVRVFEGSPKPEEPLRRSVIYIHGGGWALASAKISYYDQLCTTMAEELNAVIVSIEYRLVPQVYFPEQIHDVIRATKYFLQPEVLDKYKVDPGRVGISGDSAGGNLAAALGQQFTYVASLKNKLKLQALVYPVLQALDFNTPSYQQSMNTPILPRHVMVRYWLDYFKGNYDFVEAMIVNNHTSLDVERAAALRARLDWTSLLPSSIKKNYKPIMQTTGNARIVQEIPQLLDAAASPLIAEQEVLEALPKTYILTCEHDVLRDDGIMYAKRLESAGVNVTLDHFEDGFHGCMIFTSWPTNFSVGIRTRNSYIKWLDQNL

[5] = system: membrane-associated hydrolase (KIAA1363); assay: as above; type: biochemical; settings: value in parentheses; FAAH versus KIAA1363

For O=C(CCCCCCc1ccccc1)c1ncc(C(F)(F)F)o1 [Compound 5a, reference compound], the “TGH (selectivity)” value [1] was “(3)”, the IC50 [2] was 200 nM and the Ki [3] was 0.3 nM. For the same compound, the IC50 (FAAH) was 70 nM, the IC50 [4] was > 100000 nM and the “KIAA1363 (selectivity)” value [5] was “(>1400)”.

— patent publication US20120302607A1, “C4-SUBSTITUTED ALPHA-KETO OXAZOLES” (The Scripps Research Institute, priority 2008, published 2012)
